# “Also recorded” adds a separate entry of the source.
# What was measured:
# [1] = test system: Rats treated with scopolamine; test: Passive avoidance in scopolamine-induced memory impairment; format: in vivo, rat
# Description: FIG. 3 reports results of a passive avoidance test in the model of scopolamine-induced memory loss. Rats treated with scopolamine (Sco, 1 mg/kg) or physiological solution (Sal) received CR4056 10 mg/kg bid or its vehicle (MC). t student test. *p<0.05; **P<0.01 (n=6).
# Scopolamine, a nonselective muscarinic receptor antagonist, produces a blocking of the activity of the muscarinic acetylcholine receptor, and the concomitant appearance of transient cognitive amnesia and electrophysiological changes, which resemble those observed in Alzheimer's disease. Therefore, scopolamine administration may be considered as a psychopharmacological model of Alzheimer's disease (Lenz R A, Psychopharmacology (Berl), 2012). Passive avoidance is a behavioural model of memory impairment.
# The apparatus consisted of a two-compartment box: light and dark compartments separated by a door. The rat was placed in the center of the light compartment, with the door between two compartments closed. After 4 seconds, the door was opened and the latency time, i.e., the time taken by the rat to enter all four paws into the dark compartment was recorded.
# Once the rat moved completely in the dark compartment, the door was closed and immediately a mild foot shock was delivered through the grid floor. Thus, during the initial phase the animal learned that the moving to the dark compartment had negative consequences. […]
# [2] = test system: Transgenic 5XFAD mice; test: Novel object recognition in transgenic 5XFAD mice model of Alzheimer's disease; format: in vivo, mouse; details: 30 mg/kg orally once a day for 10 days
# Excerpt: FIG. 6 reports the results of Novel Object Recognition test in transgenic 5XFAD mice model of Alzheimer disease. (Obj C=new object) *p<0.0001, unpaired t Student test.
# Transgenic 5XFAD mice, overexpressing the human amyloid precursor protein (APP695) with Swedish (K670N/M671L), Florida (I716V) and London (V717I) familial Alzheimer's disease (FAD) mutations, as well as human Presenilin1 (PS1) with M146L and L286V FAD mutations were used as Alzheimer's disease model. 6 months old female transgenic 5XFAD mice and wild-type controls (WT) were treated orally (gavage) with 30 mg/kg of CR4056 or vehicle once a day for a period of 10 days (n=4 WT/Vehicle, 8 WT/CR4056, 2 5XFAD/Vehicle, and 3 5XFAD/CR4056). Following repeated treatments, hippocampal-dependent memory was tested using the novel object recognition task. The object recognition test measures working and spatial memory. In the training phase, animals were placed in the arena with objects constructed from large plastic bricks. In the testing phase, one object was replaced by a novel object. Animals were returned in the arena and allowed to explore. Exploration of objects was observed and recorded. Mice should recognize that a new object has been placed and therefore explore this object for longer time.
# [3] = test system: Iba1-positive microglial cells; test: Spinal microglia activation (Iba1 immunofluorescence) in CFA inflammatory model; format: in vivo, rat; details: rats, 6 mg/kg os single administration 72 hours post-CFA, evaluated after 90 minutes
# Description: FIG. 2 reports the results of spinal microglia activation at 72 hours following CFA injection. The quantification of microglia activation in ipsilateral L5 SC dorsal horn was determined as the number of Iba1-positive microglia, displaying a clearly swollen cell body with reduced processes, within the analyzed selected frame of the superficial laminae. Data represent the mean of 5 animals/group. Ordinary one way ANOVA followed by Dunnet's multiple comparison (**p<0.05).
# Microglial cells activation was evaluated by immunofluorescence staining, measuring the expression of ionized calcium-binding adapter molecule 1 (Iba-1) in ipsilateral L5 spinal cord in complete Freund's adjuvant (CFA) model. […]
# CR4056 (6 mg/kg, os) was administered 72 hours post-CFA and after 90 minutes animals were deeply anesthetized with an overdose of urethane (1.5 g·kg−1, i.p.) and then transcardially perfused with 250 mL 0.9% saline containing 1% heparin (5000 UI·mL−1), followed by 500 mL 10% formalin (i.e., 4% paraformaldehyde, Bio-Optica Spa, Milan, Italy). […] For each section, a representative image of both the ipsilateral and the contralateral dorsal horn (laminae I-III) of the L5 spinal cord was captured at 20× magnification, using consistent exposure times across all sections, and then analysed. […] For each animal (n=5 per group) 6 non-consecutive sections were analysed and results were averaged.
smiles,measurement,setting,value
"c1ccc(-c2ncc3cc(-n4ccnc4)ccc3n2)cc1 [CR4056, 2-phenyl-6-(1H-imidazol-1-yl)quinazoline]","Escape latency time, passive avoidance, sham animals","[1]; rats not treated with scopolamine, CR4056 10 mg/kg bid vs vehicle (MC)",not different from its vehicle
same,"Escape latency time, passive avoidance, scopolamine-treated animals","[1]; rats, scopolamine 1 mg/kg sc, CR4056 10 mg/kg bid orally",counteracted the memory impairment
same,"Working and spatial memory, novel object recognition",[2],significant improvement in the working and spatial memory
same,Microglia activation in ipsilateral L5 spinal cord dorsal horn (Iba1-positive activated microglia),[3],completely restored the basal conditions of microglia; also recorded: significantly reduced microglia activation

# Source: US20240091227A1, “Use Of 2-Phenyl-6-(1H-Imidazol-1-YL) Quinazoline For Treating Neurodegenerative Diseases, Preferably Alzheimer's Disease” (ROTTAPHARM BIOTECH S.R.L., priority 2019, published 2024)
